Source: US6069167A, “Use of antioxidant agents to treat cholestatic liver disease” (priority 1997, dated 2000)

System: liver
Test: Histology of the liver in the in vivo reversible hepatic injury model
Design: species or system rat
Excerpt: The instant invention also provides for an in vivo reversible hepatic injury model animal model, preferably a rodent model, most preferably a rat model. The animal can be dosed with any injurious bile acid or analogs thereof Suitable injurious bile acids include conjugates of chenodeoxycholic acid and lithocholic acid. A particularly suitable injurious bile acid analog is taurochenodeoxycholic acid. The injurious bile acid or analog can be administered by any suitable means, such as injection, oral or rectal administration. The injurious bile acid or analog thereof can be conveniently administered intravenously, particularly intravenous administration in the tail vein. The time of administration should be for less than 10 minutes, preferably approximately 1 to 2 minutes.
These histological findings are similar to those reported in a recently described rat model of continuous jugular vein infusion of TCDC at a rate of 0.4 to 0.6 μmol/min/100 gram over 60 minutes^31. […] However, the model of the instant invention produced similar results at half the TCDC dosages of the continuous TCDC infusion model, and allows for rapid, convenient infusion of TCDC.
Based on these biochemical and histological findings, a suitable time point for the embodiment of the instant invention using TCDC as the toxic bile acid was the 4 hour, 10 μmol/100 gram weight dose.

C[C@H](CCC(=O)NCCS(=O)(=O)O)[C@H]1CC[C@H]2[C@@H]3[C@H](O)C[C@@H]4C[C@H](O)CC[C@]4(C)[C@H]3CC[C@]12C [TCDC, taurochenodeoxycholic acid]
Histology of the liver (4 h after TCDC 10 μmol/100 gram weight): mild hepatocyte swelling, variable necrosis of individual hepatocytes, mild portal tract infiltration with lymphocytes without bile duct injury, and accumulation of smooth eosinophilic globules | Reversibility of hepatocyte injury (TCDC 10 μmol/100 gram weight, 24 h): much reduced by 24 hours after injection | Predominant histological findings of the in vivo model (rat model, TCDC): Hepatocyte swelling and a mild degree of cellular necrosis
